# Laboratory results reported in publication PMC8233831, “On the Inhibitability of Natural Products Isolated from Tetradium ruticarpum towards Tyrosine Phosphatase 1B (PTP1B) and α-Glucosidase (3W37): An In Vitro and In Silico Study” (Molecules, 2021).
# Where two headings read alike, the source gives them in different places.
# Key:
# [1] = tested on: aldose reductase; set-up: method as in PMID 17498942; conditions: cited from earlier work
# [2] = tested on: sorbitol accumulation; set-up: method as in PMID 17498942; conditions: at 100 μM; cited from earlier work
# [3] = tested on: obese/diabetic KK-Ay mice; set-up: method as in PMID 24391749; conditions: cited from earlier work
# [4] = tested on: peroxisome proliferator-activated receptors (PPARs); set-up: method as in PMID 30827999; conditions: cited from earlier work
# [5] = target: T1, Protein tyrosine phosphatase 1B (human recombinant) (Homo sapiens, UniProt P18031); experiment: Protein tyrosine phosphatase 1B inhibition assay (p-NPP substrate); assay type: biochemical; conditions: means ± SD of three replicates; read-out: PTP1B IC50
# T1 construct: purchased Biomol International LP, Plymouth Meeting, Pennsylvania, PA, USA
# T1 sequence (P18031 1-435): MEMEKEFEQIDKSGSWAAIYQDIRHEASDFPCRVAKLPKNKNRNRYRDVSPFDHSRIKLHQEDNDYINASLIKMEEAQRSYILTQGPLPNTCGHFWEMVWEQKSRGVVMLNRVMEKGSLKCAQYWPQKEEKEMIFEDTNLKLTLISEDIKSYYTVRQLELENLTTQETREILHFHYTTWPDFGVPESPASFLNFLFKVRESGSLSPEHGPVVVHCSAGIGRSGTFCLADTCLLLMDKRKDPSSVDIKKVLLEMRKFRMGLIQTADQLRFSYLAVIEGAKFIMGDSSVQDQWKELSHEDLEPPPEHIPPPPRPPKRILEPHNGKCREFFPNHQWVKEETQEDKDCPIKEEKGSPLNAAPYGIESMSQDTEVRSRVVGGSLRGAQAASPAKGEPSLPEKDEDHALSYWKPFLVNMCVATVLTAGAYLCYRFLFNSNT
# Description: Protein tyrosine phosphatase 1B (human recombinant), i.e., PTP1B, was purchased from Biomol International LP, Plymouth Meeting, Pennsylvania, PA, USA, and the inhibitory activities of the tested samples were evaluated using the method as described. In a typical procedure, 0.05–0.1 μg of PTP1B (BIOMOL International L.P., Plymouth Meeting, Pennsylvania, PA, USA) and 4 mM p-NPP in a buffer containing 1 mM dithiothreitol, 0.1 M NaCl, 1 mM EDTA, and 50 mM citrate (pH 6.0), with or without test compounds, were added, with 100 μL final volume to each of the 96 wells. After the reaction mixture was incubated at 37 °C for 30 min, 10 M NaOH was added to quench the reaction. PTP1B enzyme activity was determined by the amount of produced p-nitrophenol at 405 nm. The nonenzymatic hydrolysis of the substrate was corrected by measuring the control, which contained no PTP1B enzyme.
# [6] = target: α-glucosidase; experiment: α-Glucosidase inhibition assay (pNPG substrate); assay type: biochemical; conditions: means ± SD of three replicates
# Description: The inhibitory activity of α-glucosidase was determined according to the modified method with a readily available enzyme. In a typical procedure, α-glucosidase (0.1 U/mL, Wako) was dissolved in 100 mM sodium phosphate buffer (pH 6.8) and used as an enzyme solution. A total of 1 mM p-Nitrophenyl-α-D-glucopyranoside (pNPG) in the same buffer (pH 6.8) was used as a substrate solution. […] After substrate solution (95 μL) was added, the sample solution was incubated for another 10 min at 37 °C incubator. Enzymatic activity was quantified by measuring absorbance at 405 nm using an enzyme-linked immunosorbent assay (ELISA) microplate reader (D.I Biotech Ltd., Seoul, Korea).
# [7] = tested on: nitric oxide production; set-up: method as in PMID 26753624; conditions: cited from earlier work
# [8] = tested on: Candida albicans; set-up: method as in PMID 33971509; conditions: cited from earlier work
# [9] = tested on: A549 cells; set-up: method as in PMID 25470278; conditions: cited from earlier work
# [10] = tested on: A549 cells; set-up: method as in PMID 25470278; conditions: applied before 60Co γ-irradiation; cited from earlier work
# [11] = tested on: Staphyloccocus aureus (ATCC25923); set-up: method as in PMID 23651559; conditions: cited from earlier work
# [12] = tested on: Staphylococcus epidermidis (ATCC12228); set-up: method as in PMID 23651559; conditions: cited from earlier work
# [13] = tested on: Bacillus subtilis (ATCC6633); set-up: method as in PMID 23651559; conditions: cited from earlier work
# [14] = tested on: HepG2; set-up: method as in PMID 23651559; conditions: HepG2, MTT method; cited from earlier work
# [15] = tested on: Hela; set-up: method as in PMID 23651559; conditions: MTT method; cited from earlier work
# [16] = tested on: BEL7402; set-up: method as in PMID 23651559; conditions: BEL7402, MTT method; cited from earlier work
# [17] = tested on: BEL7403; set-up: method as in PMID 23651559; conditions: BEL7403, MTT method; cited from earlier work
# [18] = tested on: Jurkat T cells clone E6.1; set-up: method as in doi:10.5012/bkcs.2010.31.04.1081; conditions: Jurkat T cells clone E6.1, MTT method; cited from earlier work
# [19] = tested on: experimental liver cancer cells in rats; set-up: method as in ref 32 = [32]; 32. Bai J.W. Zhang Y. Yang M.J. Effects of schinifoline on cytoskeleton of experimental hepatoma in rats observed by whole mount cell transmission electron microscopy Beijing Zhongyiyao Daxue Xuebao 2; conditions: by influencing cytoskeleton; cited from earlier work
# [20] = tested on: experimental hepatocarcinogenesis; set-up: method as in ref 33 = [33]; 33. Bai J.W. Zhang Y. Wu J. Flow cytometric analysis of the schinifoline inhibition on rat hepatoma cell induced by DEN Beijing Zhongyiyao Daxue Xuebao 1999 22 34 35; conditions: by inhibiting hepatoma cell's DNA synthesis; cited from earlier work
compound,measurement,setting,value
CNc1ccccc1C(=O)N1CCc2c([nH]c3ccccc23)C1=O [rhetsinine],aldose reductase inhibition,[1],inhibited aldose reductase in a dose-dependent manner
same,inhibition of sorbitol accumulation,[2],79.3%
evodiamine,obesity and insulin resistance,[3],reduced obesity and insulin resistance
same,activation of PPARs,[4],activate peroxisome proliferator-activated receptors
"CC(=CCOc1ccc(C=CCO)cc1)CO [Compound 2, 3-[4-(4-methylhydroxy-2-butenyloxy)-phenyl]-2-propenol]",IC50,[5],47.7 ± 1.1 µM
same,IC50,[6],167.4 ± 1.4 µM
same,in vitro inhibitory effect on nitric oxide production,[7],did not show in vitro inhibitory effect
"CCCCCCCc1cc(=O)c2ccccc2n1C [Compound 1, 2-heptyl-1-methylquinolin-4-one]",IC50,[5],24.3 ± 0.8 µM
same,IC50,[6],92.1 ± 0.8 µM
same,effect on negative effects of Candida albicans in vivo,[8],inhibited the negative effects of Candida albicans in vivo
same,in vitro inhibitory effect on nitric oxide production,[7],did not show in vitro inhibitory effect
same,cytotoxicity on A549 cells IC50,[9]; 6 h treatment,33.7 ± 2.4 µg/mL
same,cytotoxicity on A549 cells IC50,[9]; 12 h treatment,21.9 ± 1.9 µg/mL
same,cytotoxicity on A549 cells IC50,[9]; 24 h treatment,16.8 ± 2.2 µg/mL
same,radio-sensitivity of A549 cells,[10],enhanced the radio-sensitivity of A549 cells
same,antibacterial activity,[11],no antibacterial activity
same,antibacterial activity,[12],no antibacterial activity
same,antibacterial activity,[13],no antibacterial activity
same,cytotoxicity,[14],no cytotoxicity
same,cytotoxicity,[15],no cytotoxicity
same,cytotoxicity,[16],no cytotoxicity
same,cytotoxicity,[17],no cytotoxicity
same,cytotoxicity,[18],no cytotoxicity
same,treatment of experimental liver cancer cells in rats,[19],can be used to treat experimental liver cancer cells in rats
same,treatment of experimental hepatocarcinogenesis,[20],can treat experimental hepatocarcinogenesis
